This experiment has as its target 15-PGDH/HPGD (Homo sapiens (Human), UniProt P15428). Briefly: hPGDH inhibitor screening biochemical assay. The conditions noted are these: read-out: hPGDH: Average IC50. On the procedure:
A hydroxyprostaglandin dehydrogenase inhibition screening biochemical assay can be performed to assess the synthesized inhibitors provided herein. Provided herein is an exemplary biochemical assay for hPGDH inhibitor screening.
The in vitro biochemical assay can be performed in white, 384 plates in total 20 μl reaction volume consisting of 10 nM of 15-PGDH/HPGD (R&D System #5660-DH), 15 μM Prostaglandin E2 (Sigma, Cat #P5640-10MG) and 0.25 mM (3-Nicotinamide adenine dinucleotide sodium salt (Sigma, Cat #N0632-5G) made in reaction buffer (50 mM Tris-HCl, pH 7.5, 0.01% Tween 20) at 10-point dose response curve for test/tool compounds. Briefly, 5 μl (4×) of compounds solution and 5 μl (final concentration, 10 nM) of enzyme solution is added to white 384 well plates and incubated for 10 mins at 37° C. 5 μl (4×) of Prostaglandin E2 and 5 μl (4×) of β-Nicotinamide adenine dinucleotide sodium salt is added to the wells and incubated for 10 mins at room temperature. Fluorescence is recorded at ex/em=340 nm/485 nm. The percentage (%) inhibition of enzyme activity was determined relative to positive control (1% DMSO) and IC50 was calculated using GraphPad prism software (four parameter-variable slope equation).
15-PGDH/HPGD, sequence (P15428 whole entry): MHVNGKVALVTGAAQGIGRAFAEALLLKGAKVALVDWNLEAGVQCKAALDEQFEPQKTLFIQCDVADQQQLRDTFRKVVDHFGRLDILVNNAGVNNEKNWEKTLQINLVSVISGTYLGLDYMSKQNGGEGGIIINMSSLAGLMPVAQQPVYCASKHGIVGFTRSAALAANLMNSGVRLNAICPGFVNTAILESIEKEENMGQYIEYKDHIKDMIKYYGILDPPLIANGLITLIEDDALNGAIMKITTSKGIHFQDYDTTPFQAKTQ
A word on the IC50: it is the concentration that inhibits the measured activity by half. Turning to `O=C(c1cnc2c(ccn2-c2cscn2)c1)N1CCCCC1` [MF-PGDH-074], the concentration for half-maximal inhibition (IC50) is < 0.1 µM. Then `O=C(c1ccc2c(c1)nnn2-c1cccc(Cl)c1)N1CCCCC1` [MF-PGDH-011, (1-(3-chlorophenyl)-1H-benzo[d][1,2,3]triazol-5-yl)(piperidin-1-yl)methanone], with < 0.1 µM; and `COc1ccc(-n2ccc3cc(C(=O)N4CCCCC4)cnc32)cn1` [MF-DH-323], with < 0.1 µM; and `N#Cc1ccc(-n2ccc3cc(C(=O)N4CCC(F)(F)CC4)cnc32)cc1` [MF-DH-439], with < 0.1 µM. Under `COCCc1nc2cc(C(=O)N3CCC(F)CC3)cnc2n1-c1ccc(OC)cc1` [MF-DH-185] stands ≥ 1 µM; under `O=C(NC1(C(=O)O)CC1)c1ccc(-n2ccc3cc(C(=O)N4CCC(F)(F)CC4)cnc32)cn1` [MF-DH-430, 1-(5-(5-(4,4-difluoropiperidine-1-carbonyl)-1H-pyrrolo[2,3-b]pyridin-1-yl)picolinamido)cyclopropane-1-carboxylic acid], < 0.1 µM; under `NC(=O)c1ccc(-n2ccc3cc(C(=O)N4CCC(F)(F)CC4)cnc32)cc1` [MF-DH-394], < 0.1 µM. Then `CN(C)c1cccc(-n2ccc3cc(C(=O)N4CCCCC4)cnc32)c1` [MF-DH-302], with < 0.1 µM; and `O=C(c1ccc2c(cnn2-c2cccc(Cl)c2)c1)N1CCCCC1` [MF-PGDH-006, (1-(3-chlorophenyl)-1H-indazol-5-yl)(piperidin-1-yl)methanone], with < 0.1 µM. With `O=C(c1ccc2c(c1)ncn2-c1cccc(Cl)c1)N1CC2(CCC2)C1` [MF-PGDH-019], the IC50 was < 0.1 µM.

Turning to `O=C(c1cnc2c(c1)ncn2-c1ccc(O)cc1)N1CCC(F)CC1` [MF-DH-238], the IC50 is 0.1 to 1 µM. Turning to `N#Cc1ccc(-n2ccc3cc(C(=O)N4CC[C@H](F)C4)cnc32)cc1` (single isomer, unassigned) [MF-DH-574], the 50% inhibitory concentration (IC50) is < 0.1 µM.

For the molecule `O=C(O)c1cncc(-n2ccc3cc(C(=O)N4CCC(F)(F)CC4)cnc32)c1` [MF-DH-425, 5-(5-(4,4-difluoropiperidine-1-carbonyl)-1H-pyrrolo[2,3-b]pyridin-1-yl)nicotinic acid], the half-maximal inhibitory concentration (IC50) is < 0.1 µM. Then `CCNC(=O)c1ccc(-n2ccc3cc(C(=O)N4CCC(F)(F)CC4)cnc32)cc1` [MF-DH-418], with < 0.1 µM; and `O=C(NC1CNC1)c1ccc(-n2ccc3cc(C(=O)N4CCC(F)(F)CC4)cnc32)cc1` [MF-DH-420], with < 0.1 µM; and `COc1ccccc1C(=O)Nc1ccc(C(=O)N2CCCCC2)cc1` [MF-PGDH-041], with < 0.1 µM. Under `O=C(c1ccn2c(-c3cccc(Cl)c3)cnc2c1)N1CCCCC1` [MF-PGDH-007, (3-(3-chlorophenyl)imidazo[1,2-a]pyridin-7-yl)(piperidin-1-yl)methanone] stands < 0.1 µM; under `COc1ccc(-n2c(C3CC3)nc3cc(C(=O)N4CCCCC4)ccc32)cc1` [MF-PGDH-021], 0.1 to 1 µM; under `O=C(c1ccc(-n2ccc3cc(C(=O)N4CCC(F)(F)CC4)cnc32)cc1)N(CCO)CCO` [MF-DH-451], < 0.1 µM. Under `O=C(Nc1ccccc1)c1ccc2c(c1)ncn2-c1cccc(Cl)c1` [MF-PGDH-065] stands ≥ 1 µM; under `CCNC(=O)c1ccc(-n2ccc3cc(C(=O)N4CCC(F)(F)CC4)cnc32)nc1` [MF-DH-477, 6-(5-(4,4-difluoropiperidine-1-carbonyl)-1H-pyrrolo[2,3-b]pyridin-1-yl)-N-ethylnicotinamide], < 0.1 µM; under `O=C(c1cnc2c(ccn2-c2cccc(C(=O)N3CCS(=O)(=O)C3)c2)c1)N1CCC(F)(F)CC1` [MF-DH-497, (4,4-difluoropiperidin-1-yl)(1-(3-(1,1-dioxidothiazolidine-3-carbonyl)phenyl)-1H-pyrrolo[2,3-b]pyridin-5-yl)methanone], < 0.1 µM. Regarding `NC[C@@H]1CN(c2ccc(-n3ccc4cc(C(=O)N5CCC(F)(F)CC5)cnc43)cn2)C(=O)O1` [MF-DH-478], the IC50 is < 0.1 µM. On to `Nc1ccc(-n2ccc3cc(C(=O)N4CCCCC4)cnc32)cn1` [MF-DH-336], for which the IC50 was < 0.1 µM. As for `N#Cc1ccc(-n2cc(Cl)c3cc(C(=O)N4CCC(F)CC4)cnc32)cc1` [MF-DH-388], the IC50 was < 0.1 µM. Under `COc1ccc(Cn2cc(-n3ccc4cc(C(=O)N5CCCCC5)cnc43)cn2)cc1` [MF-DH-129] stands 0.1 to 1 µM; under `COc1ccc(-n2ccc3cc(C(=O)N4CCC(C(F)(F)F)CC4)cnc32)cc1` [MF-DH-324], 0.1 to 1 µM. Then `NC(=O)CCc1nc2cc(C(=O)N3CCCCC3)ccc2n1-c1cccc(Cl)c1` [MF-PGDH-035, 3-(1-(3-chlorophenyl)-5-(piperidine-1-carbonyl)-1H-benzo[d]imidazol-2-yl)propanamide], with < 0.1 µM; and `N#Cc1ccc(-n2ccc3cc(C(=O)N4CC[C@@H](F)C4)cnc32)cc1` (single isomer, unassigned) [MF-DH-575], with < 0.1 µM; and `O=C(NC1CC1)c1ccc2c(c1)ncn2-c1cccc(Cl)c1` [MF-PGDH-063], with 0.1 to 1 µM. Then `Cn1cc(-n2ccc3cc(C(=O)N4CCCCC4)cnc32)cn1` [MF-PGDH-076], with < 0.1 µM. In the case of `O=C(c1ccc(COc2ccccc2-c2cncs2)cc1)N1CCCCC1` [MF-PGDH-097], the half-inhibitory concentration (IC50) was < 0.1 µM.

As for `O=C(c1cnc2c(ccn2C2CCC(F)(F)CC2)c1)N1CCCCC1` [MF-DH-284], the concentration for half-maximal inhibition (IC50) is ≥ 1 µM. Then `N#Cc1cccc(-n2ccc3cc(C(=O)N4CCC(F)CC4)cnc32)c1` [MF-DH-344], with < 0.1 µM.

Regarding `COc1ccc(-n2ccc3c(N)c(C(=O)N4CCCCC4)cnc32)cc1` [MF-DH-290, (4-amino-1-(4-methoxyphenyl)-1H-pyrrolo[2,3-b]pyridin-5-yl)(piperidin-1-yl)methanone], the IC50 is < 0.1 µM. Under `NC(=O)c1cncc(-n2ccc3cc(C(=O)N4CCC(F)CC4)cnc32)c1` [MF-DH-351] stands < 0.1 µM; under `CC(C)(O)C#Cc1nc2cc(C(=O)N3CCC(F)(F)CC3)cnc2n1-c1ccc(C#N)cc1` [MF-DH-476, 4-(6-(4,4-difluoropiperidine-1-carbonyl)-2-(3-hydroxy-3-methylbut-1-yn-1-yl)-3H-imidazo[4,5-b]pyridin-3-yl)benzonitrile], 0.1 to 1 µM; under `COc1ccc(-n2cnc3cc(C(=O)N4CCCCC4)ccc32)cc1Cl` [MF-PGDH-024, (1-(3-chloro-4-methoxyphenyl)-1H-benzo[d]imidazol-5-yl)(piperidin-1-yl)methanone], < 0.1 µM. Then `COc1ccc(Cn2cc3cc(-n4ccc5cc(C(=O)N6CCCCC6)cnc54)ccc3n2)cc1` [MF-DH-340], with < 0.1 µM; and `CC(C)(C#N)c1cncc(-n2ccc3cc(C(=O)N4CCC(F)(F)CC4)cnc32)c1` [MF-DH-509, 2-(5-(5-(4,4-difluoropiperidine-1-carbonyl)-1H-pyrrolo[2,3-b]pyridin-1-yl)pyridin-3-yl)-2-methylpropanenitrile], with < 0.1 µM; and `O=C(c1cnc2c(c1)ncn2-c1cccc(OC(F)(F)F)c1)N1CCC(F)CC1` [MF-DH-226], with 0.1 to 1 µM. Consider `O=C(c1ccc2c(c1)ncn2-c1cccc(Cl)c1)N1CCC(F)(F)C1` [MF-PGDH-047], for which the IC50 was ≥ 1 µM. Consider `O=C(c1cnc2c(ccn2-c2cccc(C(=O)N3CC[S+]([O-])C3)c2)c1)N1CCC(F)(F)CC1` (stereo not drawn) [MF-DH-527, (4,4-difluoropiperidin-1-yl)(1-(3-(1-oxidothiazolidine-3-carbonyl)phenyl)-1H-pyrrolo[2,3-b]pyridin-5-yl)methanone], for which the concentration for half-maximal inhibition (IC50) is < 0.1 µM. Regarding `NCc1ccc(-n2ccc3cc(C(=O)N4CCCCC4)cnc32)cc1` [MF-DH-304], the 50% inhibitory concentration (IC50) was < 0.1 µM. Then `NS(=O)(=O)c1ccc(-n2ccc3cc(C(=O)N4CCC(F)(F)CC4)cnc32)cc1` [MF-DH-496], with < 0.1 µM.

As for `CCc1nc2cc(C(=O)N3CCC(F)CC3)cnc2n1-c1ccc(OC)cc1` [MF-DH-184], the half-maximal inhibitory concentration (IC50) was in the range of 0.1 to 1 µM. Then `O=C(c1ccc2c(c1)ncn2-c1cccc(Cl)c1)N1CC2CC2C1` (stereo not drawn) [MF-PGDH-017], with 0.1 to 1 µM; and `O=C(c1cnc2c(ccn2-c2cccnc2)c1)N1CCCCC1` [MF-PGDH-068], with < 0.1 µM. Consider `NS(=O)(=O)c1cccc(-n2ccc3cc(C(=O)N4CCC(F)(F)CC4)cnc32)c1` [MF-DH-495], for which the concentration for half-maximal inhibition (IC50) was < 0.1 µM.

Regarding `O=C(c1ccc2c(c1)ncn2-c1cccc(Cl)c1)N1CCC(Cl)C1` (stereo not drawn) [MF-PGDH-049], the IC50 is < 0.1 µM. Under `Cc1cncc(-n2ccc3cc(C(=O)N4CCCCC4)cnc32)c1` [MF-DH-320] stands < 0.1 µM; under `O=C(O)CCc1nc2cc(C(=O)N3CCCCC3)ccc2n1-c1cccc(Cl)c1` [MF-PGDH-034, 3-(1-(3-chlorophenyl)-5-(piperidine-1-carbonyl)-1H-benzo[d]imidazol-2-yl)propanoic acid], < 0.1 µM. Under `Cc1nc2cc(C(=O)N3CCCCC3)ccc2n1-c1cccc(Cl)c1` [MF-PGDH-091] stands < 0.1 µM; under `Cc1ccc(S(=O)(=O)n2ccc3cc(C(=O)N4CCCCC4)cnc32)cc1` [MF-DH-312, piperidin-1-yl(1-tosyl-1H-pyrrolo[2,3-b]pyridin-5-yl)methanone], ≥ 1 µM.

The values are drawn from patent US11345702B1 (Myoforte Therapeutics, Inc., priority 2020, dated 2022).
